Source: the NIST ThermoML archive (doi:10.1016/j.jct.2006.05.004)

Columns and labels:
[1] = xn = mol fraction of the nth substance listed; details: 298.15 K, 101 kPa, Liquid
[2] = excess molar enthalpy (molar enthalpy of mixing); xn = mol fraction of the nth substance listed; details: 298.15 K, 101 kPa, Liquid

BrCCBr [1,2-dibromoethane] + CCC(=O)OC
Details	excess molar enthalpy [kcal/mol]	mass density [kg/m3]
[1], x2 = 0.0544	–	2090.48
[1], x2 = 0.1086	–	2015.14
[1], x2 = 0.1617	–	1942.18
[1], x2 = 0.213	–	1872.81
[1], x2 = 0.2714	–	1794.99
[1], x2 = 0.3254	–	1724.12
[1], x2 = 0.4447	–	1570.72
[1], x2 = 0.5056	–	1494.18
[1], x2 = 0.561	–	1425.55
[1], x2 = 0.6166	–	1357.57
[1], x2 = 0.6838	–	1276.41
[1], x2 = 0.743	–	1205.94
[1], x2 = 0.8086	–	1129
[1], x2 = 0.8715	–	1056.36
[1], x2 = 0.9358	–	982.68
[2], x1 = 0.0552	0.0107	–
[2], x1 = 0.1177	0.0166	–
[2], x1 = 0.18	0.0207	–
[2], x1 = 0.2446	0.0215	–
[2], x1 = 0.3072	0.0203	–
[2], x1 = 0.3659	0.0179	–
[2], x1 = 0.4203	0.0141	–
[2], x1 = 0.4702	0.00939	–
[2], x1 = 0.4789	0.00657	–
[2], x1 = 0.5086	0.00466	–
[2], x1 = 0.5255	0.00246	–
[2], x1 = 0.5837	-0.00251	–
[2], x1 = 0.6456	-0.00514	–
[2], x1 = 0.7119	-0.00614	–
[2], x1 = 0.7852	-0.00672	–
[2], x1 = 0.8597	-0.00547	–
[2], x1 = 0.9321	-0.00287	–

BrCCBr [1,2-dibromoethane] + CCCC(=O)OC
Details	excess molar enthalpy [kcal/mol]	mass density [kg/m3]
[1], x2 = 0.0456	–	2090.91
[1], x2 = 0.0934	–	2013.52
[1], x2 = 0.138	–	1943.4
[1], x2 = 0.1885	–	1866.04
[1], x2 = 0.2437	–	1784.45
[1], x2 = 0.2925	–	1714.77
[1], x2 = 0.3454	–	1641.47
[1], x2 = 0.4047	–	1562.1
[1], x2 = 0.5193	–	1415.94
[1], x2 = 0.5812	–	1340.87
[1], x2 = 0.6461	–	1264.87
[1], x2 = 0.7118	–	1190.49
[1], x2 = 0.7767	–	1119.58
[1], x2 = 0.8458	–	1046.47
[1], x2 = 0.9209	–	970.06
[2], x2 = 0.0509	0.0049	–
[2], x2 = 0.1042	0.00772	–
[2], x2 = 0.1621	0.00858	–
[2], x2 = 0.2266	0.00748	–
[2], x2 = 0.2928	0.00418	–
[2], x2 = 0.3635	-0.00086	–
[2], x2 = 0.4243	-0.00672	–
[2], x2 = 0.4796	-0.0115	–
[2], x2 = 0.537	-0.0148	–
[2], x2 = 0.6008	-0.0165	–
[2], x2 = 0.6755	-0.0168	–
[2], x2 = 0.7537	-0.0152	–
[2], x2 = 0.8373	-0.0118	–
[2], x2 = 0.9188	-0.00707	–

BrCCBr [1,2-dibromoethane] + CCCCC(=O)OC
Details	excess molar enthalpy [kcal/mol]	mass density [kg/m3]
[1], x2 = 0.0413	–	2086.33
[1], x2 = 0.0834	–	2009.4
[1], x2 = 0.1257	–	1934.54
[1], x2 = 0.1717	–	1857.45
[1], x2 = 0.2221	–	1776.23
[1], x2 = 0.2644	–	1711.22
[1], x2 = 0.3124	–	1640.62
[1], x2 = 0.3717	–	1557.38
[1], x2 = 0.4812	–	1414.72
[1], x2 = 0.5471	–	1335.17
[1], x2 = 0.6142	–	1258.34
[1], x2 = 0.6822	–	1184.61
[1], x2 = 0.755	–	1109.85
[1], x2 = 0.833	–	1033.97
[1], x2 = 0.9091	–	963.97
[2], x2 = 0.0457	0.00222	–
[2], x2 = 0.1054	0.00361	–
[2], x2 = 0.1756	0.00289	–
[2], x2 = 0.2495	-0.000765	–
[2], x2 = 0.3112	-0.0059	–
[2], x2 = 0.3523	-0.0102	–
[2], x2 = 0.3893	-0.0141	–
[2], x2 = 0.4631	-0.0184	–
[2], x2 = 0.5105	-0.0206	–
[2], x2 = 0.5845	-0.0217	–
[2], x2 = 0.6874	-0.0198	–
[2], x2 = 0.7978	-0.0149	–
[2], x2 = 0.9098	-0.00805	–

BrCCBr [1,2-dibromoethane] + COC(C)=O
Details	excess molar enthalpy [kcal/mol]	mass density [kg/m3]
[1], x2 = 0.0644	–	2093.03
[1], x2 = 0.1265	–	2019.85
[1], x2 = 0.186	–	1949.51
[1], x2 = 0.2463	–	1877.44
[1], x2 = 0.3093	–	1801.67
[1], x2 = 0.3675	–	1731.26
[1], x2 = 0.4309	–	1653.78
[1], x2 = 0.4879	–	1583.49
[1], x2 = 0.5507	–	1505.69
[1], x2 = 0.6003	–	1443.71
[1], x2 = 0.7248	–	1286.24
[1], x2 = 0.7776	–	1218.54
[1], x2 = 0.8338	–	1146.14
[1], x2 = 0.8868	–	1076.96
[1], x2 = 0.9443	–	1001.13
[2], x2 = 0.0678	0.0234	–
[2], x2 = 0.1329	0.0398	–
[2], x2 = 0.2086	0.0538	–
[2], x2 = 0.2791	0.062	–
[2], x2 = 0.3449	0.0668	–
[2], x2 = 0.4079	0.0679	–
[2], x2 = 0.4651	0.0656	–
[2], x2 = 0.5145	0.0616	–
[2], x2 = 0.5219	0.0606	–
[2], x2 = 0.559	0.0568	–
[2], x2 = 0.5731	0.055	–
[2], x2 = 0.6281	0.0477	–
[2], x2 = 0.6875	0.0384	–
[2], x2 = 0.7492	0.0287	–
[2], x2 = 0.8149	0.0208	–
[2], x2 = 0.8808	0.0122	–
[2], x2 = 0.9429	0.00631	–

BrCCBr [1,2-dibromoethane] + COC=O
Details	excess molar enthalpy [kcal/mol]	mass density [kg/m3]
[1], x2 = 0.0941	–	2084.41
[1], x2 = 0.1513	–	2030.58
[1], x2 = 0.2019	–	1980.75
[1], x2 = 0.251	–	1931.96
[1], x2 = 0.2967	–	1881.94
[1], x2 = 0.3904	–	1784.54
[1], x2 = 0.4985	–	1662.03
[1], x2 = 0.5973	–	1543.27
[1], x2 = 0.7057	–	1404.1
[1], x2 = 0.7483	–	1346.2
[1], x2 = 0.7967	–	1278.68
[1], x2 = 0.8478	–	1205.01
[1], x2 = 0.8808	–	1155.98
[1], x2 = 0.9402	–	1064.28
[2], x2 = 0.0726	0.0561	–
[2], x2 = 0.1528	0.112	–
[2], x2 = 0.2426	0.156	–
[2], x2 = 0.3298	0.179	–
[2], x2 = 0.4034	0.19	–
[2], x2 = 0.4719	0.194	–
[2], x2 = 0.5315	0.192	–
[2], x2 = 0.5856	0.185	–
[2], x2 = 0.6347	0.175	–
[2], x2 = 0.6786	0.163	–
[2], x2 = 0.7171	0.15	–
[2], x2 = 0.7759	0.127	–
[2], x2 = 0.8639	0.0849	–
[2], x2 = 0.9405	0.041	–

BrCCCBr [1,3-dibromopropane] + CCC(=O)OC
Details	excess molar enthalpy [kcal/mol]	mass density [kg/m3]
[1], x2 = 0.059	–	1909.4
[1], x2 = 0.1261	–	1841.06
[1], x2 = 0.1889	–	1776.8
[1], x2 = 0.243	–	1720.78
[1], x2 = 0.3657	–	1593.37
[1], x2 = 0.4328	–	1523.29
[1], x2 = 0.4901	–	1462.96
[1], x2 = 0.5464	–	1403.57
[1], x2 = 0.6165	–	1328.98
[1], x2 = 0.7214	–	1216.43
[1], x2 = 0.7712	–	1162.65
[1], x2 = 0.8235	–	1105.81
[1], x2 = 0.8863	–	1037.06
[1], x2 = 0.9375	–	980.57
[2], x2 = 0.0646	0.0167	–
[2], x2 = 0.1354	0.0273	–
[2], x2 = 0.2107	0.0338	–
[2], x2 = 0.2845	0.037	–
[2], x2 = 0.3517	0.0365	–
[2], x2 = 0.4137	0.0336	–
[2], x2 = 0.4627	0.03	–
[2], x2 = 0.4703	0.0293	–
[2], x2 = 0.5077	0.0264	–
[2], x2 = 0.5202	0.0247	–
[2], x2 = 0.5574	0.0222	–
[2], x2 = 0.566	0.0202	–
[2], x2 = 0.6073	0.0156	–
[2], x2 = 0.6129	0.0138	–
[2], x2 = 0.6726	0.00743	–
[2], x2 = 0.7385	0.000502	–
[2], x2 = 0.8065	-0.00323	–
[2], x2 = 0.873	-0.00351	–
[2], x2 = 0.9388	-0.00215	–

BrCCCBr [1,3-dibromopropane] + CCCC(=O)OC
Details	excess molar enthalpy [kcal/mol]	mass density [kg/m3]
[1], x2 = 0.0527	–	1904.53
[1], x2 = 0.1033	–	1844.63
[1], x2 = 0.1625	–	1775.48
[1], x2 = 0.2135	–	1716.63
[1], x2 = 0.268	–	1654.61
[1], x2 = 0.3273	–	1588.07
[1], x2 = 0.3844	–	1524.77
[1], x2 = 0.4397	–	1464.34
[1], x2 = 0.4966	–	1402.92
[1], x2 = 0.5597	–	1335.77
[1], x2 = 0.6194	–	1273.09
[1], x2 = 0.6773	–	1213.28
[1], x2 = 0.7401	–	1149.07
[1], x2 = 0.8089	–	1079.72
[1], x2 = 0.8623	–	1026.6
[1], x2 = 0.9397	–	950.76
[2], x2 = 0.0571	0.00789	–
[2], x2 = 0.1319	0.0136	–
[2], x2 = 0.2164	0.0167	–
[2], x2 = 0.3018	0.0163	–
[2], x2 = 0.3823	0.0126	–
[2], x2 = 0.4559	0.00676	–
[2], x2 = 0.5207	-0.000191	–
[2], x2 = 0.5371	-0.00325	–
[2], x2 = 0.5718	-0.00545	–
[2], x2 = 0.6497	-0.00978	–
[2], x2 = 0.7433	-0.0109	–
[2], x2 = 0.8389	-0.00956	–
[2], x2 = 0.9316	-0.00511	–

BrCCCBr [1,3-dibromopropane] + CCCCC(=O)OC
Details	excess molar enthalpy [kcal/mol]	mass density [kg/m3]
[1], x2 = 0.0534	–	1896.4
[1], x2 = 0.0937	–	1841.97
[1], x2 = 0.1477	–	1771.31
[1], x2 = 0.188	–	1720.07
[1], x2 = 0.2439	–	1650.83
[1], x2 = 0.2975	–	1586.35
[1], x2 = 0.3439	–	1532.03
[1], x2 = 0.4116	–	1455.16
[1], x2 = 0.4656	–	1395.81
[1], x2 = 0.5216	–	1335.88
[1], x2 = 0.5922	–	1262.69
[1], x2 = 0.6481	–	1206.41
[1], x2 = 0.7047	–	1151.1
[1], x2 = 0.7835	–	1076.35
[1], x2 = 0.8493	–	1016.07
[1], x2 = 0.9201	–	953.2
[2], x2 = 0.0492	0.00571	–
[2], x2 = 0.1163	0.00925	–
[2], x2 = 0.1938	0.00973	–
[2], x2 = 0.2736	0.00767	–
[2], x2 = 0.338	0.00421	–
[2], x2 = 0.41	-0.00237	–
[2], x2 = 0.4582	-0.00743	–
[2], x2 = 0.4998	-0.0112	–
[2], x2 = 0.5481	-0.0146	–
[2], x2 = 0.6786	-0.0158	–
[2], x2 = 0.7994	-0.0132	–
[2], x2 = 0.9065	-0.00848	–
